Patent US20260115250A1, “METHODS OF TREATING AGE-RELATED MACULAR DEGENERATION” (Character Biosciences, Inc., priority 2022, published 2026)
Peptide text beside a SMILES is read from it.

Columns and labels:
[1] = DMPC solubility assay, 0.5 mM DMPC (turbidity reduction); format: biochemical; conditions: for DMPC solubilizing activity: FIGS. 2A-2D and 3A-3C
Outline: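 Peptides (100 μM final, or 3.16-100 μM for titrations) incubated with 0.5 mM DMPC in water for 15 minutes at room temperature. Turbidity read as absorbance at 405 nm; EC50 from non-linear regression, mean+SD over two runs.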

[2] = system: ARPE-19 cells; test: ARPE-19 cell lysis (Sytox Green); format: cell-based, human; conditions: 3.16-100 μM peptide, 2 h
Procedure: These figures illustrate ARPE-19 cell lysis. ARPE-19 cells were grown in 96-well plates to 75-85% confluence. Peptides at 10 mM were diluted in serum-free DMEM:F12 media into a 20 μM working solution (a 2× solution). Sytox Green was prepared in serum-free DMEM:F12 at a 1 μM working solution (a 2× solution). Equivalent volumes of the peptide and Sytox Green solutions were added to empty 96-well plates and mixed gently. Final peptide concentration was 10 μM. ARPE-19 cells (˜80% confluent in 96-well plates) were washed with DPBS and then incubated in 100 μL of peptide/Sytox Green mixture for 2 h at 37° C. Cells were fixed in 4% paraformaldehyde solution in DPBS and then incubated in 10 μM Hoechst solution for 10 min, washed, and imaged on a Yokogawa CQ1 high-content imager. CellPathfinder software was used to count live/dead cells in 4 fields of view at 20× magnification. Percent (%) lysis was calculated by dividing the number of Sytox Green+ nuclei by the total number of Hoechst+ nuclei.
ARPE-19 cells were grown in 96-well plates to 75-85% confluence. Peptides at 10 mM were diluted in serum-free DMEM: F12 media to solutions between […]. Sytox Green was prepared in serum-free DMEM: F12 media at a 1 μM working solution. Equivalent volumes of the peptide and Sytox Green solutions were added to empty 96-well plates and mixed gently. Final peptide concentration was 3.16-100 μM. ARPE-19 cells (˜80% confluent in 96-well plates) were washed with DPBS and then incubated in 100 μL of peptide/Sytox Green mixture for 2 h at 37° C. Cells were fixed in 4% paraformaldehyde solution in DPBS and then incubated in 10 μM Hoechst solution for 10 min, washed, and imaged on a Yokogawa CQ1 high-content imager. CellPathfinder software was used to count live/dead cells in 4 fields of view at 20× magnification. Percent (%) lysis was calculated by dividing the number of Sytox Green+ nuclei by the total number of Hoechst+ nuclei. Non-linear regression was used to calculate EC50 values.

[3] = system: ARPE-19 cells; test: ARPE-19 cholesterol import (BODIPY-Cholesterol); format: cell-based, human
Procedure: (§1) FIG. 12 and FIGS. 14A-14B illustrate the results of ARPE-19 cholesterol import testing. ARPE-19 cells were seeded on 96-well plates at 25,000 cells per well and grown to confluence. A 2× solution of 500 μM DMPC and 50 μM BODIPY-Cholesterol were prepared in serum free DMEM: F12. Peptides were diluted to 20 μM in serum free DMEM: F12 (a 2× solution). Peptides were added to lipid solution in equal parts (60 μL each) and were incubated for 1 hour at 37° C. ARPE-19 cells were serum starved in serum free DMEM: F12 for 1 hour at 37° C. Peptide: Lipid complexes (100 μL total volume per well) were transferred to ARPE-19 cells for 2 hours at 37° C. Cells were washed, fixed, and intracellular fluorescence was read on Promega GloMax at 475 nm excitation, 500-550 emission. Fluorescence values were background corrected from no treatment conditions. Data are presented as mean+SD for two runs.
FIG. 15 illustrates ARPE-19 cholesterol import titration curves for a subset of the peptides. ARPE-19 cells were seeded on 96-well plates at 25,000 cells per well and grown to confluence. A 2× solution of 500 μM DMPC and 50 μM BODIPY-Cholesterol was prepared in serum free DMEM: F12. Peptides were diluted to 0.74-60 μM in serum free DMEM: F12 (2× solutions). Peptides were added to lipid solution in equal parts (60 μL each) to create final peptide concentrations of 0.37-30 µM and incubated for 1 hour at 37° C. ARPE-19 cells were serum starved in serum free DMEM: F12 for 1 hour at 37° C. Peptide: Lipid complexes (100 μL total volume per well) were transferred to ARPE-19 cells for 2 hours at 37° C. Cells were washed, fixed, and intracellular fluorescence was read on Promega GloMax at 475 nm excitation, 500-550 emission. Fluorescence values were background corrected from no treatment conditions. […]
ARPE-19 cells were seeded on 96-well plates at 25,000 cells per well and grown to confluence. […] Cells were washed, fixed, and intracellular fluorescence was read on Promega GloMax at 475 nm excitation, 500-550 emission. Fluorescence values were background corrected from no treatment conditions. […]

[4] = system: ARPE-19 cells; test: ARPE-19 GAG-dependent cholesterol import (with or without heparin); format: cell-based, human; conditions: ARPE-19, 10 μM peptide
Procedure: as §1, with “ARPE-19” for “FIG. 12 and FIGS. 14A-14B illustrate the results of ARPE-19 cholesterol import testing. ARPE-19”, “BODIPY-Cholesterol with or without 100 µg/mL heparin was” for “BODIPY-Cholesterol were”, “and” for “and were”, “presented ±SD” for “presented as mean+SD”, “for 2” for “for two”

[5] = system: HepG2 cells; test: HepG2 cholesterol import (BODIPY-Cholesterol); format: cell-based; conditions: HepG2, peptide:lipid complexes from 30 μM diluted 1:3
Procedure: HepG2 cells were seeded on a 96-well plate at 10,000 cells per well and grown to confluence. A solution of 500 μM DMPC and 50 μM BODIPY-Cholesterol was prepared in serum free EMEM. Peptides were diluted to 20 μM in serum free EMEM (a 2× solution). Peptides were added to lipid solution in equal parts (60 μL each) to create final 1× concentration and incubated for 1 hour at 37° C. HepG2 cells were serum starved in serum-free EMEM for 1 hour at 37° C. Peptide: Lipid complexes (100 μL total volume per well) were transferred to HepG2 cells for 2 hours at 37° C. Cells were washed, fixed, and intracellular fluorescence was read on Promega GloMax at 475 nm excitation, 500-550 emission. Fluorescence values were background corrected from no treatment conditions. Data are presented as mean+SD for two runs.
HepG2 cells were seeded on 96-well plates at 10,000 cells per well and grown to confluence. Peptide: Lipid complexes were created by preparing a solution of serum-free EMEM containing 30 μM peptide, 750 μM DMPC, and 75 μM BODIPY-Cholesterol. Peptide: Lipid complexes were serially diluted 1:3 for 5 concentrations, and incubated for 1 hour at 37° C. […] Cells were washed, fixed, and intracellular fluorescence was read on Promega GloMax at 475 nm excitation, 500-550 emission. Fluorescence values were background corrected from no treatment conditions. […]

[6] = system: HepG2 cells; test: HepG2 GAG dependent cholesterol import (with or without heparin); format: cell-based; conditions: HepG2, 10 μM peptide, with or without 100 μg/mL heparin
Procedure: HepG2 cells were seeded on 96-well plates at 10,000 cells per well and grown to confluence. A 2× solution of 500 μM DMPC and 50 μM BODIPY-Cholesterol with or without 100 μg/mL heparin was prepared in serum free EMEM. Peptides were diluted to 20 μM in serum-free EMEM (a 2× solution). Peptides were added to lipid solution in equal parts (60 μL each) and incubated for 1 hour at 37° C. HepG2 cells were serum starved in serum-free EMEM for 1 hour at 37° C. Peptide: Lipid complexes (100 μL total volume per well) were transferred to HepG2 cells for 2 hours at 37° C. Cells were washed, fixed, and intracellular fluorescence was read on Promega GloMax at 475 nm excitation, 500-550 emission. Fluorescence values were background corrected from no treatment conditions. Data are presented ±SD for 2 runs.

[7] = DMPC solubility titration, 1 mM DMPC; format: biochemical; conditions: 3.16-100 μM peptides, 15 minutes
Procedure: FIGS. 4A-4B illustrate a screening assay based on DMPC solubility, measured by reducing turbidity of DMPC liposome solutions, for a subset of the peptides in FIGS. 1B-1I. FIGS. 4A-4B illustrate DMPC solubility titration curves. Peptide stocks were diluted to 200 μM in H2O (a 2× solution) and serially diluted in H2O over 4 concentrations, then 50 μL of peptide solutions were distributed in triplicate into 96-well plates. A 2 mM solution of 1,2-dimyristoyl-sn-glycero-3-phosphocholine (DMPC) in H2O was prepared, and using a multichannel pipet, 50 μL DMPC solution was rapidly added to the plate. Peptide and lipid solutions were incubated at room temperature for 15 minutes with final concentrations of 3.16-100 μM peptides and 1 mM DMPC. After 15 minutes, absorbance was read on a plate reader at 405 nm. […] Data are presented as mean+SD over two runs. Non-linear regression was used to calculate EC50 values.

[8] = system: HMC3 cells; test: HMC3 cholesterol efflux; format: cell-based, human
[9] = target: LDLR (Homo sapiens, UniProt P01130); test: KD (µM)
Chain of LDLR (P01130 22-860 limits assumed): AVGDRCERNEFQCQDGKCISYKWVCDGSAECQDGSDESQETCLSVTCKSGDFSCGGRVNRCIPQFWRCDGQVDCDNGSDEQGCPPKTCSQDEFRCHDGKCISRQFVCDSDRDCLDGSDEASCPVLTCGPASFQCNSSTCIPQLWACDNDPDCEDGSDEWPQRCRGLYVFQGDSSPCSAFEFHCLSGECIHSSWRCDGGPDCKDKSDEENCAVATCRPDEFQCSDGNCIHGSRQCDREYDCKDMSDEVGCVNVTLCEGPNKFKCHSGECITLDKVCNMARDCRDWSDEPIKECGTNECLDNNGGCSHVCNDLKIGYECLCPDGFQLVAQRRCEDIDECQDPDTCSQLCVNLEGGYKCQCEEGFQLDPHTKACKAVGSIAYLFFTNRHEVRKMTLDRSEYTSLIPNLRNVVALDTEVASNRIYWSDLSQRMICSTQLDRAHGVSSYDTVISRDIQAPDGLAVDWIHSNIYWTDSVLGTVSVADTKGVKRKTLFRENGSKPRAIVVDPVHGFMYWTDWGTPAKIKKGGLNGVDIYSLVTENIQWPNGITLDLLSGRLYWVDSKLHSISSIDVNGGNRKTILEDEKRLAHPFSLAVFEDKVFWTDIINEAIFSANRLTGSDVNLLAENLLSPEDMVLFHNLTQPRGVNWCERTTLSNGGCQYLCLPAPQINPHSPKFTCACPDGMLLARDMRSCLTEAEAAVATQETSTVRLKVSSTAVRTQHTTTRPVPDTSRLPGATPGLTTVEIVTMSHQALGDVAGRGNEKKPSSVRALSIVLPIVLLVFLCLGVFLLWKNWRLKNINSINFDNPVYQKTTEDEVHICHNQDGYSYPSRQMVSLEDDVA
Source text: Table printed on a drawing sheet, FIG. 23
Title: Buffer: HBS + 0.05% P20
Head of the field: KD (µM)
The patent's description of the figure: FIG. 23 is a table showing the binding kinetics results of LDLR binding assays (SPR), high surfactant preparation as described herein for select peptides shown in FIG. 1A-1I.
First copying reader's note: Middle of three side-by-side panels of FIG. 23; the KD cells hold value ± error together.
Where the first naming reader finds the target: description_of_the_figure: FIG. 23 is a table showing the binding kinetics results of LDLR binding assays (SPR)

Structure (SMILES) | EC50 ([1]; 3.16-100 μM peptides, 15 minutes) [µM] | DMPC solubilizing activity [1] | EC50 [2] [µM] | cholesterol import titration ([3]; ARPE-19, 0.37-30 μM peptide, FIG. 15) | GAG dependence of cholesterol import [4] | cholesterol import titration [5] | GAG dependence of cholesterol import [6] | EC50 [7] [µM] | cholesterol import titration ([3]; ARPE-19, peptide:lipid complexes from 30 μM diluted 1:3, FIG. 16) | cholesterol efflux titration ([8]; HMC3, 0-100 μM peptide, LXR agonist) | cholesterol efflux in the presence of LXR agonist ([8]; HMC3, 20 μM peptide, 4 hours) | Kd [9] [µM]
CSCC[C@H](NC(=O)[C@H](CC(C)C)NC(=O)[C@H](CC(=O)O)NC(=O)[C@H](CCCCN)NC(=O)CNC(=O)[C@H](Cc1ccc(O)cc1)NC(=O)[C@H](CC(=O)O)NC(=O)[C@@H](NC(=O)[C@@H](NC(=O)[C@@H](NC(=O)[C@H](CCC(N)=O)NC(=O)[C@H](Cc1ccccc1)NC(=O)[C@H](Cc1ccc(O)cc1)NC(=O)[C@H](CCC(N)=O)NC(=O)[C@H](CO)NC(=O)[C@@H](NC(=O)[C@H](CC(C)C)NC(=O)[C@H](CO)NC(=O)[C@H](CCCNC(=N)N)NC(=O)[C@H](CC(C)C)NC(=O)[C@H](CC(C)C)NC(=O)[C@H](CCCNC(=N)N)NC(=O)[C@H](CCCCN)NC(=O)[C@H](CCCNC(=N)N)NC(=O)[C@H](CC(C)C)NC(=O)[C@H](CCCCN)NC(=O)[C@H](CCCNC(=N)N)NC(=O)[C@H](CC(C)C)NC(=O)[C@@H](N)Cc1c[nH]cn1)C(C)C)[C@@H](C)O)C(C)C)[C@@H](C)O)C(=O)O [T-027] (H-HLRKLRKRLLRSLVSQYFQTVTDYGKDLM-OH; N-terminus and C-terminus assumed) | 56.6 | significant activity | 40.1 | concentration-dependent increase in cholesterol import | rely on GAG binding for cholesterol import activity | concentration-dependent cholesterol import activity | rely on GAG binding for cholesterol import activity | – | – | – | – | –
CC(C)C[C@H](NC(=O)[C@H](C)NC(=O)[C@H](CCCNC(=N)N)NC(=O)[C@H](Cc1ccccc1)NC(=O)[C@H](CCCNC(=N)N)NC(=O)[C@H](CCC(=O)O)NC(=O)[C@@H](N)Cc1c[nH]c2ccccc12)C(=O)N[C@@H](Cc1ccccc1)C(=O)N[C@@H](CCCCN)C(=O)N[C@@H](CCC(=O)O)C(=O)N[C@@H](CC(C)C)C(=O)N[C@@H](C)C(=O)N[C@@H](CC(=O)O)C(=O)N[C@@H](Cc1ccc(O)cc1)C(=O)N[C@@H](Cc1ccccc1)C(=O)N[C@@H](CCCNC(=N)N)C(=O)N[C@@H](CC(=O)O)C(=O)N[C@@H](C)C(=O)O [T-086] (H-WERFRALFKELADYFRDA-OH; N-terminus and C-terminus assumed) | – | significant activity | – | – | – | – | – | 15.8 | not able to increase cholesterol import | concentration-dependent increase in cholesterol efflux | greater cholesterol efflux | –
CC(C)C[C@H](NC(=O)[C@H](CCCNC(=N)N)NC(=O)[C@H](CC(=O)O)NC(=O)[C@H](CCC(N)=O)NC(=O)[C@H](CC(C)C)NC(=O)[C@H](CCCCN)NC(=O)[C@H](CC(=O)O)NC(=O)CNC(=O)[C@H](CC(=O)O)NC(=O)[C@H](CCCNC(=N)N)NC(=O)[C@H](Cc1ccccc1)NC(=O)[C@H](CC(C)C)NC(=O)[C@H](CCCNC(=N)N)NC(=O)[C@H](CCCCN)NC(=O)[C@H](CCCNC(=N)N)NC(=O)[C@H](CC(C)C)NC(=O)[C@H](CCCCN)NC(=O)[C@H](CCCNC(=N)N)NC(=O)[C@H](CC(C)C)NC(=O)[C@@H](N)Cc1c[nH]cn1)C(=O)N[C@@H](C)C(=O)N[C@@H](CCC(=O)O)C(=O)N[C@@H](Cc1ccc(O)cc1)C(=O)N[C@@H](CCC(N)=O)C(=O)N[C@@H](C)C(=O)N[C@@H](CCCNC(=N)N)C(=O)N[C@@H](C)C(=O)N[C@@H](CCCCN)C(=O)N[C@@H](CCC(=O)O)C(=O)N[C@@H](C)C(=O)N[C@@H](Cc1ccccc1)C(=O)N[C@@H](CC(=O)O)C(=O)N[C@@H](CCCNC(=N)N)C(=O)O [T-060] (H-HLRKLRKRLFRDGDKLQDRLAEYQARAKEAFDR-OH; N-terminus and C-terminus assumed) | – | – | – | – | – | – | – | – | – | – | – | 150 ± 41.7
